Test results reported in patent publication US20240018158A1, “BRM TARGETING COMPOUNDS AND ASSOCIATED METHODS OF USE” (Prelude Therapeutics Incorporated, priority 2020, published 2024).

Molecular target: SMARCA2 (Homo sapiens (Human), UniProt P51531)
Assay: SMARCA2 HiBiT degradation assay in HEK293T cells
Type: cell-based
Settings: 293T HiBiT assay, 24 h; for DC50: read-out: DC50 (SM2-293T) SMARCA2 degradation potency; for Dmax: HEK-293T, read-out: Dmax % (SM2-293T) maximum SMARCA2 degradation within the concentrations tested
Experimental: HiBiT peptide knock-in of SMARCA2 in LgBiT expressing HEK293T cells was performed by CRISPR-mediated tagging system as described Promega. The homozygous HiBiT knock-in on c-terminus SMARCA2 was confirmed by sanger sequence. SMARCA2-HiBiT knock-in Hela monoclonal cell (CS302366) and SMARCA4-HiBiT knock-in Hela monoclonal cell (CS3023226) were purchased from Promega. The heterozygous HiBiT-knock-in was confirmed by sanger sequence in both SMARCA2-HiBiT and SMARCA4-HiBiT monoclonal cells. Compounds were prepared in a low dead volume plate at 3-fold serial dilution, and then transferred 25 nL/well into a 384 well plate (Corning: #356661) by Agilent Bravo liquid dispenser. SMARCA2-HiBiT monoclonal HEK293T cells were added at 5,000/well/25 uL into the compound containing 384 well plate. After 24 h incubation, 25 uL/well of Nano-Glo HiBiT Lytic detection buffer (Promega: N3050) was added to the wells and incubate for 10 min on a shaker, centrifuged for 5 min, and then RLU was detected on a microplate reader (Envision, PerkinElmer). The RLU ratio values are normalized to percent inhibition as follows: % inhibition=((HC−LC)−(compound−LC))/(HC−LC))*100, where HC=high control=mean signal of DMSO only; LC=low control=mean signal of 100% inhibition of RLU by 1 μM PRT1001728. An 11-point dose response curve for each compound will be generated using normalized % inhibition to determine IC50 values based on the equation: Y=Bottom+((Top-Bottom)/(1+((IC50/X)^Slope))), where Y is the % inhibition in the presence of X inhibitor concentration; Top=the top plateau of the curve; Bottom=the bottom plateau of the curve; Slope=Hill coefficient; DC50=concentration of compound with 50% degradation in relation to top/high control. DC50 values were determined by using XLfit Model 205.

Sequence of SMARCA2 (P51531 whole entry): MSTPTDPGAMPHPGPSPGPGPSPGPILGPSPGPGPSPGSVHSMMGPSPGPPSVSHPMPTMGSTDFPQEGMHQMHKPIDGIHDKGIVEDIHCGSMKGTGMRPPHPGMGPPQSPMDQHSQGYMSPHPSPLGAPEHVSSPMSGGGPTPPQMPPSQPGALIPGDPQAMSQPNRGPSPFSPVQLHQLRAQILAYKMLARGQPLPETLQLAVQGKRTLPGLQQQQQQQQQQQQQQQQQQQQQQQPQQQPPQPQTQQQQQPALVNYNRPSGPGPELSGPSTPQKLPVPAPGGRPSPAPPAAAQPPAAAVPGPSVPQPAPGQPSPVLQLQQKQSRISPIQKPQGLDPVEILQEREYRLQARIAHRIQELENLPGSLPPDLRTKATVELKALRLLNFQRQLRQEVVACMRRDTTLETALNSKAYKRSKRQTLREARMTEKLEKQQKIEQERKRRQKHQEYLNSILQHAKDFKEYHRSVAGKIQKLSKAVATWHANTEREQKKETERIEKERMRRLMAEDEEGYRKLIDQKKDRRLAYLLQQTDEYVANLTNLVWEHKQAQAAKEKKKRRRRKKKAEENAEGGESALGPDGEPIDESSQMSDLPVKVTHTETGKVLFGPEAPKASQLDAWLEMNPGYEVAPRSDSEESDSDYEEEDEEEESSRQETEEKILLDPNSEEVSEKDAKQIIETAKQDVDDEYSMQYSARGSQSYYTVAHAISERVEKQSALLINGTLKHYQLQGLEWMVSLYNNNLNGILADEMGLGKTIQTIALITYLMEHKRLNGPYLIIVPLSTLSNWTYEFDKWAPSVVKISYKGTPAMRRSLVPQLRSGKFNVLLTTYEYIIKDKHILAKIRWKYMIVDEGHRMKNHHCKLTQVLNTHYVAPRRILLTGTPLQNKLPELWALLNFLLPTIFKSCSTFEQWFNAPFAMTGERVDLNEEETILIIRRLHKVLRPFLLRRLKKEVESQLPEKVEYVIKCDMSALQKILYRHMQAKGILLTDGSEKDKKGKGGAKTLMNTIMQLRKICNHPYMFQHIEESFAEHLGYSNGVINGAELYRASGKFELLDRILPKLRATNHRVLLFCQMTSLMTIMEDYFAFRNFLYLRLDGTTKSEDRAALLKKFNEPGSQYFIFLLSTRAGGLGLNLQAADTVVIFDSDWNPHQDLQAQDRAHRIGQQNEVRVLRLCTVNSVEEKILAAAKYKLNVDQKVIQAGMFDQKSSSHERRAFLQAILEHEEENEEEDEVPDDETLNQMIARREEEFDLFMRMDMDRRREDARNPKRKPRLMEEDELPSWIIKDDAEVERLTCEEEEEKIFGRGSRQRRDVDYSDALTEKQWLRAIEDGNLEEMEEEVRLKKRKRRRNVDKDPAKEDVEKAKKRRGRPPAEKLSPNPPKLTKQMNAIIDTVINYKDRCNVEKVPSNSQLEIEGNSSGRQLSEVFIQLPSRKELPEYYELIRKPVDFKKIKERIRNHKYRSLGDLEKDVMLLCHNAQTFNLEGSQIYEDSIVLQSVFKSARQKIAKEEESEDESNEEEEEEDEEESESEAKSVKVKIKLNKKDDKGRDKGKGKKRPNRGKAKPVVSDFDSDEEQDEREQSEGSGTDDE

DC50	Dmax	Compound
< 100 nM		Cc1ncsc1-c1ccc([C@H](C)NC(=O)[C@@H]2C[C@@H](O)CN2C(=O)[C@@H](c2cc(OCCN3CCC(N4CCN5c6cc(-c7ccccc7O)nnc6NC[C@H]5C4)C3)no2)C(C)C)cc1 (single isomer, unassigned) [Example 18]
< 100 nM	> 75%	Cc1ncsc1-c1ccc([C@H](C)NC(=O)[C@@H]2C[C@@H](O)CN2C(=O)[C@@H](c2cc(OCCN3CCC(N4CCN5c6cc(-c7ccccc7O)nnc6NC[C@@H]5C4)CC3)no2)C(C)C)cc1 [Example 77, (2S,4R)-4-hydroxy-1-((R)-2-(3-(2-(4-((R)-2-(2-hydroxyphenyl)-5,6,6a,7,9,10-hexahydro-8H-pyrazino[1′,2′:4,5]pyrazino[2,3-c]pyridazin-8-yl)piperidin-1-yl)ethoxy)isoxazol-5-yl)-3-methylbutanoyl)-N-((S)-1-(4-(4-methylthiazol-5-yl)phenyl)ethyl)pyrrolidine-2-carboxamide]
< 100 nM	> 75%	Cc1ncsc1-c1ccc([C@H](C)NC(=O)[C@@H]2C[C@@H](O)CN2C(=O)[C@@H](c2cc(OCCN3CCN(CCN4CCC(N5CCN6c7cc(-c8ccccc8O)nnc7NC[C@H]6C5)CC4)CC3)no2)C(C)C)cc1 [Example 21, (2S,4R)-4-hydroxy-1-((R)-2-(3-(2-(4-(2-(4-((S)-2-(2-hydroxyphenyl)-5,6,6a,7,9,10-hexahydro-8H-pyrazino[1′,2′:4,5]pyrazino[2,3-c]pyridazin-8-yl)piperidin-1-yl)ethyl)piperazin-1-yl)ethoxy)isoxazol-5-yl)-3-methylbutanoyl)-N-((S)-1-(4-(4-methylthiazol-5-yl)phenyl)ethyl)pyrrolidine-2-carboxamide]
< 100 nM	> 75%	Cc1ncsc1-c1ccc([C@H](C)NC(=O)[C@@H]2C[C@@H](O)CN2C(=O)[C@@H](c2cc(OC(C)CN3CCCC(CN4CCN5c6cc(-c7ccccc7O)nnc6NC[C@H]5C4)C3)no2)C(C)C)cc1 (stereo partly drawn) [Example 23, (2S,4R)-4-hydroxy-1-((2R)-2-(3-((1-(3-(((S)-2-(2-hydroxyphenyl)-5,6,6a,7,9,10-hexahydro-8H-pyrazino[1′,2′:4,5]pyrazino[2,3-c]pyridazin-8-yl)methyl)piperidin-1-yl)propan-2-yl)oxy)isoxazol-5-yl)-3-methylbutanoyl)-N-((S)-1-(4-(4-methylthiazol-5-yl)phenyl)ethyl)pyrrolidine-2-carboxamide]
100 to 1000 nM	> 75%	Cc1ncsc1-c1ccc([C@H](C)NC(=O)[C@@H]2C[C@@H](O)CN2C(=O)[C@@H](NC(=O)CCN2CCC(CN3CCN4c5cc(-c6ccccc6O)nnc5NCC4C3)CC2)C(C)(C)C)cc1 (stereo partly drawn) [Example 8, (2S,4R)-4-hydroxy-1-((2S)-2-(3-(4-((2-(2-hydroxyphenyl)-5,6,6a,7,9,10-hexahydro-8H-pyrazino[1′,2′:4,5]pyrazino[2,3-c]pyridazin-8-yl)methyl)piperidin-1-yl)propanamido)-3,3-dimethylbutanoyl)-N-((S)-1-(4-(4-methylthiazol-5-yl)phenyl)ethyl)pyrrolidine-2-carboxamide]
< 100 nM	> 75%	COc1cc(-c2scnc2C)ccc1[C@H](C)NC(=O)[C@@H]1C[C@@H](O)CN1C(=O)[C@@H](c1cc(OCCN2CCC(CN3CCN4c5cc(-c6ccccc6O)nnc5NC[C@H]4C3)CC2)no1)C(C)C [Example 40, (2S,4R)-4-hydroxy-1-((R)-2-(3-(2-(4-(((S)-2-(2-hydroxyphenyl)-5,6,6a,7,9,10-hexahydro-8H-pyrazino[1′,2′:4,5]pyrazino[2,3-c]pyridazin-8-yl)methyl)piperidin-1-yl)ethoxy)isoxazol-5-yl)-3-methylbutanoyl)-N-((S)-1-(2-methoxy-4-(4-methylthiazol-5-yl)phenyl)ethyl)pyrrolidine-2-carboxamide]
< 100 nM	> 75%	Cc1ncsc1-c1ccc([C@H](C)NC(=O)[C@@H]2C[C@@H](OC(=O)C(C)C)CN2C(=O)[C@@H](c2cc(OCCN3CCC(N4CCN5c6cc(-c7ccccc7O)nnc6NC[C@H]5C4)CC3)no2)C(C)C)cc1 [Example 81, (3R,5S)-1-((R)-2-(3-(2-(4-((S)-2-(2-hydroxyphenyl)-5,6,6a,7,9,10-hexahydro-8H-pyrazino[1′,2′:4,5]pyrazino[2,3-c]pyridazin-8-yl)piperidin-1-yl)ethoxy)isoxazol-5-yl)-3-methylbutanoyl)-5-(((S)-1-(4-(4-methylthiazol-5-yl)phenyl)ethyl)carbamoyl)pyrrolidin-3-yl isobutyrate]
100 to 1000 nM	> 75%	Cc1ncsc1-c1ccc([C@H](C)NC(=O)[C@@H]2C[C@@H](O)CN2C(=O)C(c2cc(COc3cc(N4CCN5c6cc(-c7ccccc7O)nnc6NCC5C4)ccn3)no2)C(C)C)cc1 (stereo partly drawn) [Example 75, (2S,4R)-4-hydroxy-1-(2-(3-(((4-(2-(2-hydroxyphenyl)-5,6,6a,7,9,10-hexahydro-8H-pyrazino[1′,2′:4,5]pyrazino[2,3-c]pyridazin-8-yl)pyridin-2-yl)oxy)methyl)isoxazol-5-yl)-3-methylbutanoyl)N-((S)-1-(4-(4-methylthiazol-5-yl)phenyl)ethyl)pyrrolidine-2-carboxamide]
< 100 nM	> 75%	Cc1ncsc1-c1ccc([C@H](C)NC(=O)[C@@H]2C[C@@H](OC(=O)C(C)C)CN2C(=O)[C@@H](c2cc(OCCN3CCC(CN4CCN5c6cc(-c7ccccc7O)nnc6NC[C@H]5C4)CC3)no2)C(C)C)cc1 [Example 52, (3R,5S)-1-((R)-2-(3-(2-(4-(((S)-2-(2-hydroxyphenyl)-5,6,6a,7,9,10-hexahydro-8H-pyrazino[1′,2′:4,5]pyrazino[2,3-c]pyridazin-8-yl)methyl)piperidin-1-yl)ethoxy)isoxazol-5-yl)-3-methylbutanoyl)-5-(((S)-1-(4-(4-methylthiazol-5-yl)phenyl)ethyl)carbamoyl)pyrrolidin-3-yl isobutyrate]
< 100 nM	> 75%	Cc1ncsc1-c1ccc([C@H](C)NC(=O)[C@@H]2C[C@@H](O)CN2C(=O)[C@@H](NC(=O)CN2CCC(N3CCN4c5cc(-c6ccccc6O)nnc5NC[C@H]4C3)CC2)C(C)(C)C)cc1 [Example 11, (2S,4R)-4-hydroxy-1-((S)-2-(2-(4-((S)-2-(2-hydroxyphenyl)-5,6,6a,7,9,10-hexahydro-8H-pyrazino[1′,2′:4,5]pyrazino[2,3-c]pyridazin-8-yl)piperidin-1-yl)acetamido)-3,3-dimethylbutanoyl)-N-((S)-1-(4-(4-methylthiazol-5-yl)phenyl)ethyl)pyrrolidine-2-carboxamide]
< 100 nM	> 75%	CC(=O)O[C@@H]1C[C@@H](C(=O)N[C@@H](C)c2ccc(-c3scnc3C)cc2)N(C(=O)[C@@H](c2cc(OCCN3CCN4c5cc(-c6ccccc6O)nnc5NCC4C3)no2)C(C)C)C1 (stereo partly drawn) [Example 9, (3R,5S)-1-((2R)-2-(3-(2-(2-(2-hydroxyphenyl)-5,6,6a,7,9,10-hexahydro-8H-pyrazino[1′,2′:4,5]pyrazino[2,3-c]pyridazin-8-yl)ethoxy)isoxazol-5-yl)-3-methylbutanoyl)-5-(((S)-1-(4-(4-methylthiazol-5-yl)phenyl)ethyl)carbamoyl)pyrrolidin-3-yl acetate]

Compound	DC50	Dmax
Cc1ncsc1-c1ccc([C@H](C)NC(=O)[C@@H]2C[C@@H](OC(=O)C(C)C)CN2C(=O)[C@@H](c2cc(OCCN3CCN4c5cc(-c6ccccc6O)nnc5NC[C@H]4C3)no2)C(C)C)cc1 [Example 10, (3R,5S)-1-((R)-2-(3-(2-((S)-2-(2-hydroxyphenyl)-5,6,6a,7,9,10-hexahydro-8H-pyrazino[1′,2′:4,5]pyrazino[2,3-c]pyridazin-8-yl)ethoxy)isoxazol-5-yl)-3-methylbutanoyl)-5-(((S)-1-(4-(4-methylthiazol-5-yl)phenyl)ethyl)carbamoyl)pyrrolidin-3-yl isobutyrate]	< 100 nM	> 75%
Cc1ncsc1-c1ccc([C@H](C)NC(=O)[C@@H]2C[C@@H](O)CN2C(=O)[C@@H](c2cc(OCCN3CC4CC(C3)C4N3CCN4c5cc(-c6ccccc6O)nnc5NCC4C3)no2)C(C)C)cc1 (stereo partly drawn) [Example 12, (2S,4R)-4-hydroxy-1-((2R)-2-(3-(2-(6-(2-(2-hydroxyphenyl)-5,6,6a,7,9,10-hexahydro-8H-pyrazino[1′,2′:4,5]pyrazino[2,3-c]pyridazin-8-yl)-3-azabicyclo[3.1.1]heptan-3-yl)ethoxy)isoxazol-5-yl)-3-methylbutanoyl)-N-((S)-1-(4-(4-methylthiazol-5-yl)phenyl)ethyl)pyrrolidine-2-carboxamide]	100 to 1000 nM	> 75%
